From ChEMBL document CHEMBL1201862, “PubChem BioAssay data set” (2004)
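Where inhibition never reached the appropriate level, the endpoint shown equals the highest concentration tested. Otherwise, values were interpolated linearly from a five-concentration, 48-hour dose response in 96-well plates. GI50: concentration for 50% inhibition of growth.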 Calls of active or inactive are those of the source. Cut-off read from the data, not from the text of the source: active = GI50 up to about 1.1 µM and inactive = higher.

Assays:
Experiment in all cases: growth of human tumour cells (NCI), 48 h
MOLT-4 = test system: MOLT-4
RPMI-8226 = test system: RPMI-8226
SR = test system: SR
IGROV-1 = test system: IGROV-1
RXF 393 = test system: RXF 393
DU-145 = test system: DU-145
BT-549 = test system: BT-549
PC-3 = test system: PC-3
HOP-62 = test system: HOP-62
NCI/ADR-RES = test system: NCI/ADR-RES
OVCAR-4 = test system: OVCAR-4
A498 = test system: A498
SNB-75 = test system: SNB-75
COLO 205 = test system: COLO 205
SNB-19 = test system: SNB-19
NCI-H23 = test system: NCI-H23
HCC 2998 = test system: HCC 2998
HT-29 = test system: HT-29
TK-10 = test system: TK-10

Row | SMILES | GI50 (MOLT-4) | GI50 (RPMI-8226) | GI50 (SR) | GI50 (IGROV-1) | GI50 (RXF 393) | GI50 (DU-145) | GI50 (BT-549) | GI50 (PC-3) | GI50 (HOP-62) | GI50 (NCI/ADR-RES) | GI50 (OVCAR-4) | GI50 (A498) | GI50 (SNB-75) | GI50 (COLO 205) | GI50 (SNB-19) | GI50 (NCI-H23) | GI50 (HCC 2998) | GI50 (HT-29) | GI50 (TK-10)
1 | Cc1cc(C(C)(C)C)cc(CNC2CCCCC2)c1O | 31.3 µM (inactive) | 17.5 µM (inactive) | 21.8 µM (inactive) | 13.8 µM (inactive) | < 0.01 µM (active) | 21.3 µM (inactive) | 16.3 µM (inactive) | 16.5 µM (inactive) | 20.9 µM (inactive) | 16.4 µM (inactive) | 19.5 µM (inactive) | 16.6 µM (inactive) | 12.2 µM (inactive) | 17.3 µM (inactive) | 16.6 µM (inactive) | 15.4 µM (inactive) | 3 µM (inactive) | 17.3 µM (inactive) | 16.1 µM (inactive)
2 | N=c1nc(N)nc(N)n1-c1ccc(S(N)(=O)=O)cc1 | > 100 µM (inactive) |  | > 100 µM (inactive) | > 100 µM (inactive) | > 100 µM (inactive) | > 100 µM (inactive) | > 100 µM (inactive) | > 100 µM (inactive) | > 100 µM (inactive) | > 100 µM (inactive) | > 100 µM (inactive) | > 100 µM (inactive) |  |  | > 100 µM (inactive) | > 100 µM (inactive) |  | > 100 µM (inactive) | > 100 µM (inactive)
3 | Cc1c[n+]([O-])c2ccccc2[n+]1[O-] | > 100 µM (inactive) | > 100 µM (inactive) | > 100 µM (inactive) | > 100 µM (inactive) | > 100 µM (inactive) | > 100 µM (inactive) | > 100 µM (inactive) | > 100 µM (inactive) | > 100 µM (inactive) | > 100 µM (inactive) | > 100 µM (inactive) | > 100 µM (inactive) | > 100 µM (inactive) | > 100 µM (inactive) | > 100 µM (inactive) | > 100 µM (inactive) |  | > 100 µM (inactive) | > 100 µM (inactive)
4 | O=c1[nH]cnc2cccc(Cl)c12 | > 100 µM (inactive) |  | > 100 µM (inactive) | > 100 µM (inactive) | > 100 µM (inactive) | > 100 µM (inactive) | > 100 µM (inactive) | > 100 µM (inactive) | > 100 µM (inactive) | > 100 µM (inactive) | > 100 µM (inactive) | > 100 µM (inactive) | 65.2 µM (inactive) | > 100 µM (inactive) | > 100 µM (inactive) | > 100 µM (inactive) | > 100 µM (inactive) | > 100 µM (inactive) | > 100 µM (inactive)
5 | COc1cccc(OC)c1C1ON=C(c2ccccc2)N1C12CC3CC(CC(C3)C1)C2 (centres undefined) | 84.5 µM (inactive) | 4.41 µM (inactive) | 5.92 µM (inactive) | > 100 µM (inactive) | 1.2 µM (inactive) | > 100 µM (inactive) | > 100 µM (inactive) | 66.5 µM (inactive) | 80.9 µM (inactive) | > 100 µM (inactive) |  | > 100 µM (inactive) | 20.7 µM (inactive) | > 100 µM (inactive) | 13.1 µM (inactive) | > 100 µM (inactive) | > 100 µM (inactive) | > 100 µM (inactive) | 36.6 µM (inactive)
6 | CC(=O)Nc1ccc(S(=O)(=O)Nc2nc(-c3ccc(Cl)cc3)cc(N3N=C(c4ccc(Br)cc4)CC3c3ccccc3)n2)cc1 (centres undefined) | 17 µM (inactive) | 12.1 µM (inactive) | 16.2 µM (inactive) | 11.8 µM (inactive) | 13.8 µM (inactive) | 20.4 µM (inactive) | 17.8 µM (inactive) | 14 µM (inactive) | 16.3 µM (inactive) | 17.1 µM (inactive) | 15 µM (inactive) |  |  | 14.1 µM (inactive) | 16 µM (inactive) | 16.6 µM (inactive) |  | 15 µM (inactive) | 14 µM (inactive)
7 | CC1=C(C(=O)c2ccccc2)C23C(=O)N(c4ccccc4)C(=O)C2=C(O)C=CC3(O)N1 (centres undefined) |  | 29.8 µM (inactive) | 15.4 µM (inactive) | 25.6 µM (inactive) | 20.2 µM (inactive) | 44.1 µM (inactive) | 20.4 µM (inactive) | 28.4 µM (inactive) | 32.5 µM (inactive) | 51.4 µM (inactive) | 17.8 µM (inactive) | 40 µM (inactive) | 24.2 µM (inactive) | 50.8 µM (inactive) | 37.9 µM (inactive) | 44.2 µM (inactive) | 26.7 µM (inactive) | 13.6 µM (inactive) | 67.1 µM (inactive)
8 | ClC(Cl)(Cl)C(N1CCN(c2ccccc2)CC1)N1CCN(c2ccccc2)CC1 | > 100 µM (inactive) | > 100 µM (inactive) | 45 µM (inactive) | > 100 µM (inactive) | > 100 µM (inactive) | > 100 µM (inactive) | > 100 µM (inactive) | > 100 µM (inactive) | > 100 µM (inactive) | > 100 µM (inactive) | > 100 µM (inactive) | > 100 µM (inactive) | > 100 µM (inactive) | > 100 µM (inactive) | > 100 µM (inactive) |  |  | > 100 µM (inactive) | > 100 µM (inactive)
